Data taken from ChEMBL document CHEMBL1137057 (Bioorg Med Chem Lett, 2004).

Experiments:
[1] = molecular target: T1, Neuronal acetylcholine receptor; alpha4/beta2 (Rattus norvegicus, UniProt P09483+P12390); experiment: Inhibition of [3H]cytisine binding to Nicotinic acetylcholine receptor alpha4-beta2 of rat cortical membranes; type: cell membranes, Membrane
[2] = molecular target: Neuronal acetylcholine receptor subunit alpha-7 (Rattus norvegicus, UniProt Q05941); experiment: Inhibition of [3H]-BTX binding to Nicotinic acetylcholine receptor alpha-7 of rat hippocampal membranes; type: cell membranes, Membrane
Neuronal acetylcholine receptor subunit alpha-7, sequence (Q05941 whole entry): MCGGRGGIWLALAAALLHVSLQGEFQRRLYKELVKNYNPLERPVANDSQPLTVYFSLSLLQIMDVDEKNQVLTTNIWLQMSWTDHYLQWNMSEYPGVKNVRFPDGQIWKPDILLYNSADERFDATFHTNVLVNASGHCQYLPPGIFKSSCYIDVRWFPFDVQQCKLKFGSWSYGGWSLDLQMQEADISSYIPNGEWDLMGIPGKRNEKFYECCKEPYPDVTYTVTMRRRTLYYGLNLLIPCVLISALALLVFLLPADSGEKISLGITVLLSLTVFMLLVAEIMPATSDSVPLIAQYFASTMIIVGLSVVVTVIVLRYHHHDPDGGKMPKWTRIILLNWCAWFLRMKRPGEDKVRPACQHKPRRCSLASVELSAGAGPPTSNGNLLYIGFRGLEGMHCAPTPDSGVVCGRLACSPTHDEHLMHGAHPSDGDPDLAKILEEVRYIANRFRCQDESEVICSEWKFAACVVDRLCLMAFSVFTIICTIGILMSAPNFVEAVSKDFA

[3] = molecular target: T1, Neuronal acetylcholine receptor; alpha4/beta2; experiment: Inhibition of [3H]nicotine binding to Nicotinic acetylcholine receptor alpha4-beta2 of rat cortical membranes; type: cell membranes, Membrane
[4] = species on record: Mus musculus; experiment: Effective concentration in antinociception activity in mouse tail flick test; type: functional, organism-based
[5] = molecular target: T1, Neuronal acetylcholine receptor; alpha4/beta2; experiment: Inhibition of [3H]epibatidine binding to Nicotinic acetylcholine receptor alpha4-beta2 of rat cortical membranes; type: cell membranes, Membrane

T1 sequence (P09483 whole entry): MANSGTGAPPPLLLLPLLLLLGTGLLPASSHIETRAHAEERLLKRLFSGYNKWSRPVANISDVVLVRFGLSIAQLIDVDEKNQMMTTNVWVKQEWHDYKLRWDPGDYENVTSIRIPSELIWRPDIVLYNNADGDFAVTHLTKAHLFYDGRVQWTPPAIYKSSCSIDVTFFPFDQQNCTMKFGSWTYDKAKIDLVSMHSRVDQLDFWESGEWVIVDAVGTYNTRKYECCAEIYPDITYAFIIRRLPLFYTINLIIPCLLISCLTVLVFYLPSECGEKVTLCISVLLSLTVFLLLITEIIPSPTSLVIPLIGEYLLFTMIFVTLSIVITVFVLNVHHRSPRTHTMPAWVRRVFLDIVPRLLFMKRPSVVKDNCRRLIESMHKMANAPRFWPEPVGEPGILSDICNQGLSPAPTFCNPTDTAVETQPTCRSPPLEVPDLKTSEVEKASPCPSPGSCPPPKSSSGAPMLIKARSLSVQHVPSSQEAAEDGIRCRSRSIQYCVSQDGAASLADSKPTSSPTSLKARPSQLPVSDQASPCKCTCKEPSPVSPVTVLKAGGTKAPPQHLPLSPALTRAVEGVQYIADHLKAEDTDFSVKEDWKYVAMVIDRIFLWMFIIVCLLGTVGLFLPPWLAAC
T1 sequence (P12390 whole entry): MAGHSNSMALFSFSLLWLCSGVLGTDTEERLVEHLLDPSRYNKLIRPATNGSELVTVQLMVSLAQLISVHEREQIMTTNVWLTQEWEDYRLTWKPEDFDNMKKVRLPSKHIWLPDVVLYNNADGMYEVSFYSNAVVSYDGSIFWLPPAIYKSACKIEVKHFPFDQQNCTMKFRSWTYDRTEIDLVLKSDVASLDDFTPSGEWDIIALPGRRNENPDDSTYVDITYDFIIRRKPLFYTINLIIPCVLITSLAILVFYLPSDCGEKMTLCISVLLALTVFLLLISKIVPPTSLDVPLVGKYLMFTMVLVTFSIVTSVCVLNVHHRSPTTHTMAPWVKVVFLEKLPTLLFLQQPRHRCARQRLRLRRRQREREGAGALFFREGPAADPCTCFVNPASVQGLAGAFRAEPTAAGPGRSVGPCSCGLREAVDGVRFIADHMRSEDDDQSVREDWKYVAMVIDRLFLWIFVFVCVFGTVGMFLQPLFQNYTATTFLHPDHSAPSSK

Compound | Ki [1] | Ki [2] | Ki [3] | further results
Clc1ccc(C2CC3CNC32)cn1 (stereo not given) | 3.9 nM | – | – | –
Clc1ccc(C2CC3CNC2C3)cn1 (stereo not given) | 6.6 nM | 1600 nM | > 38 nM | –
Clc1ccc(C2CC3NCC32)cn1 (stereo not given) | 5 nM | – | – | –
Clc1ccc([C@@H]2CC3CC2CN3)cn1 (stereo not given in full) | – | 6.3 nM | 0.05 nM | –
Clc1ccc([C@@H]2CC3CNC2C3)cn1 (stereo not given in full) | 0.03 nM | 3.9 nM | 0.04 nM | –
Clc1ccc(C2CC3CCC2NC3)cn1 (stereo not given) | 0.47 nM | – | – | EC50 [4]: 0.04 mg/kg
Clc1ccc(C2CC3CC2CN3)cn1 (stereo not given) | 30 nM | 3300 nM | > 38 nM | –
Clc1ccc(C2CCC3CCC2N3)cn1 (stereo not given) | – | – | – | Ki [5]: 1.6 nM
Clc1ccc(C2CC3CCCCC2N3)cn1 (single isomer, unassigned; (-)) | – | – | 0.35 nM | –
Clc1ccc(C2CC3CCCCC2N3)cn1 (stereo in doubt; 16 (+)) | – | – | 0.13 nM | –
Clc1ccc(C2CC3CCCCC2N3)cn1 (stereo in doubt; 17) | – | – | 1.25 nM | –
Clc1ccc(C2CC3CCC2N3)cn1 (stereo not given) [EPIBATIDINE] | – | – | – | EC50 [4]: 0.01 mg/kg
